Values joined by “and” are separate entries in the source; they are usually repeats but may differ in a detail not shown here. Equal entries are not always repeated. Where two headings read alike, the source gives them in different places.
Assays:
FES = target: T1, FES (Homo sapiens, UniProt P07332); assay: FES kinase assay, Z'-LYTE; type: biochemical
T1 construct: purchased Invitrogen/Life Technologies
Description: (§1) IC50 values on FAK and PYK2 were determined using the DELFIA® format, using kinase proteins obtained from Invitrogen (#PV3832, #PV4567) and biotinylated poly(Glu,Tyr) as substrate. Incubation in the presence of test compound was followed by detection of phosphorylated substrate using streptavidin-coated plates and Eu-N1 anti-phospho-Tyr PT66 antibody (#AD0040, VICTOR™ reader, both Perkin Elmer). Data were analyzed using GraphPad Prism. […] Data was fitted by iterative calculation using a sigmoidal curve analysis with variable Hill slope. In independent assays, IC50 values were determined using Z'-LYTE® technology, which is based on FRET (Invitrogen/Life Technologies). Selectivity was determined on the Invitrogen kinase panel at 1 µmol/L.

[1] = Tolerability of daily oral dosing in nude mice; type: in vivo; conditions: daily oral doses of 50 mg/kg
Description: For efficacy studies, 1 × 10^7 MIA PaCa-2 or 1 × 10^6 BxPC-3 cells (with Matrigel® 50:50) were injected subcutaneously into the right flank of female BomTac:NMRI-Foxn1^nu mice (age 6 weeks, 24-30 g; Taconic, Denmark). […] Mice were randomized according to tumor volume when tumors had reached diameters of 6–8 mm. […] Natrosol-treated animals served as vehicle controls (n = 10). Tumor diameters were measured three times weekly using a caliper and volumes were calculated according to the formula “tumor volume = length × diameter^2 × π/6”. Mice were inspected daily for abnormalities and body weight was determined three times weekly. Animals were euthanized at the end of the study or prematurely, based on criteria including weight loss exceeding 20%, tumor necrosis or tumor volumes exceeding 1500 mm^3.

FER = target: T2, FER (Homo sapiens, UniProt P16591); assay: FER kinase assay, Z'-LYTE; type: biochemical
T2 construct: purchased Invitrogen/Life Technologies
T2 sequence (P16591 whole entry): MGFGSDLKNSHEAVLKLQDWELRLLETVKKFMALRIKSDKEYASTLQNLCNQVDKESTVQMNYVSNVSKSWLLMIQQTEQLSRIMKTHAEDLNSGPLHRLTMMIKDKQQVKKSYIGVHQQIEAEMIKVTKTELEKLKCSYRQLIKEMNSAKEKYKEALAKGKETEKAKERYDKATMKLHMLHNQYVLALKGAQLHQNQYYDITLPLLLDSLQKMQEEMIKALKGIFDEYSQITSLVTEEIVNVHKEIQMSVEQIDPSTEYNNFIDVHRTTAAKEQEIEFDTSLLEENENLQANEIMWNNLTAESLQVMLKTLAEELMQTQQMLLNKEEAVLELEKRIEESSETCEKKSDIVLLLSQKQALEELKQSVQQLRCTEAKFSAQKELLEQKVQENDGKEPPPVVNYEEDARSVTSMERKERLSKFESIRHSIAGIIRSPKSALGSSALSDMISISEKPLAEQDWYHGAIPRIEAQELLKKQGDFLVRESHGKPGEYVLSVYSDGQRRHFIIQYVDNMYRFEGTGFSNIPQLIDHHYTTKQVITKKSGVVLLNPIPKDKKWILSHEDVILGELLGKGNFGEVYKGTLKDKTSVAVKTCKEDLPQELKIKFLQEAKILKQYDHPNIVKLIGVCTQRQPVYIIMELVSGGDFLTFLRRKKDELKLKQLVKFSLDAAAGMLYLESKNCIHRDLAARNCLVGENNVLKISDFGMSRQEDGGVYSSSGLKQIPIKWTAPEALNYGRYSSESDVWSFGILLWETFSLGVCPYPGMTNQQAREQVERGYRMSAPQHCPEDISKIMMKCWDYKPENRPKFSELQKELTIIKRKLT
Description: as §1

PTK2B/PYK2 [2] = target: T3, PTK2B/PYK2 (Homo sapiens, UniProt Q14289); assay: PYK2 kinase assay, DELFIA format; type: biochemical
T3 construct: purchased Invitrogen/Life Technologies
T3 sequence (Q14289 whole entry): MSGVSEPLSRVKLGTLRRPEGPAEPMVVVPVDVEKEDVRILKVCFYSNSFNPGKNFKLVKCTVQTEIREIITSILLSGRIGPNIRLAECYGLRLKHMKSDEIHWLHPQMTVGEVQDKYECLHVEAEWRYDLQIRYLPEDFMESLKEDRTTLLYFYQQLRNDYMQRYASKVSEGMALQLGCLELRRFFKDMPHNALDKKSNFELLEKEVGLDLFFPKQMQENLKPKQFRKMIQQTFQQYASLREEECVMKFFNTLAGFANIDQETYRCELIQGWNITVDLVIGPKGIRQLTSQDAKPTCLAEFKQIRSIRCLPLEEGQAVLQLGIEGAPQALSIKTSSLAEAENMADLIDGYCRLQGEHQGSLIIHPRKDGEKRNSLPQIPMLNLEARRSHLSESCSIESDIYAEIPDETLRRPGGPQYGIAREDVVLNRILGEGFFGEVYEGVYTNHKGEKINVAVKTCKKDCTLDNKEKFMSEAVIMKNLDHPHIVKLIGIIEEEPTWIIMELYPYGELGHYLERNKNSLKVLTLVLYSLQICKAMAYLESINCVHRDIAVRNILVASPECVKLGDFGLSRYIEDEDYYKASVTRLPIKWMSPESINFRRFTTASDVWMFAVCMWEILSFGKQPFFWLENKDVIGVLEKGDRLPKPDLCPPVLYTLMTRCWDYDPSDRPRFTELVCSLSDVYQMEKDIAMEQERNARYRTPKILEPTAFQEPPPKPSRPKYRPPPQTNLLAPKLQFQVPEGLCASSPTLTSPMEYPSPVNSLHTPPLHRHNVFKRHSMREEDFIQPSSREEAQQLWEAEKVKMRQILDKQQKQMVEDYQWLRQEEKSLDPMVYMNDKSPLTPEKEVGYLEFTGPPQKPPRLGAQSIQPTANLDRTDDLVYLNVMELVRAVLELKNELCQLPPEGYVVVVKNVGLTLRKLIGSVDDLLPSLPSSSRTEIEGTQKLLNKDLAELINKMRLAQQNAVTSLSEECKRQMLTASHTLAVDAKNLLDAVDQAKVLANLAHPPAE
Description: as §1, with “Technologies).” for “Technologies). Selectivity was determined on the Invitrogen kinase panel at 1 µmol/L.”

[3] = test system: Calu-6 lung adenocarcinoma cells; assay: Cancer cell line panel, 2D proliferation (Eurofins Panlabs); type: cell-based, human; conditions: Calu-6, 2D culture, 72 h
Description: (§2) Drug sensitivity of a panel of human cancer cell lines was tested at Eurofins Panlabs (Bothell, WA, USA). Cells were treated for 72 h, fixed and stained with diaminophenylindole to visualize nuclei and the fluorescence intensity of each well was measured (GE Healthcare IN Cell Analyzer 1000). Relative cell proliferation in compound-treated cultures (signal as percent of control, “POC”) was calculated as follows: POC (t = 72 h) = 100 × fluorescence (compound wells) / fluorescence (control wells). In addition, for each compound-treated culture, the cell count after incubation for 72 h (POC [t = 72 h]) was related to the count at start of treatment (POC [t = 0 h]): POC [t = 0 h] = 100 × fluorescence at t = 0 [control wells]/fluorescence at t = 72 h [control wells]). To calculate concentration–response curves, POC data were analyzed using a four-parameter log-logistic function without upper or lower limitation.

[4] = test system: panel of 243 cancer cell lines; assay: as above; type: cell-based, human; conditions: 2D culture
Description: as §2

PC-3 = assay: as above; type: cell-based, human; conditions: PC-3, 2D culture, 72 h
Description: as §2

PTK2B/PYK2 [5] = target: T3, PTK2B/PYK2; assay: PYK2 kinase assay, Z'-LYTE (FRET); type: biochemical
Description: as §1, with “Technologies).” for “Technologies). Selectivity was determined on the Invitrogen kinase panel at 1 µmol/L.”

PC-3 cells [6] = assay: Proliferation assay, adherent monolayer, alamarBlue; type: cell-based, human; conditions: Homo sapiens, PC-3, adherent monolayers
Description: PC-3 cells were incubated with compounds for 5 days at 37 °C/5% CO2, stained with alamarBlue® and fluorescence was determined (544 nm/590 nm). Data were analyzed as described above.

[7] = clinical trials NCT01905111 and NCT01335269; cited from earlier work
PAK7 = target: T4, PAK7 (Homo sapiens, UniProt Q9P286); assay: PAK7 kinase assay, Z'-LYTE; type: biochemical
T4 construct: purchased Invitrogen/Life Technologies
T4 sequence (Q9P286 whole entry): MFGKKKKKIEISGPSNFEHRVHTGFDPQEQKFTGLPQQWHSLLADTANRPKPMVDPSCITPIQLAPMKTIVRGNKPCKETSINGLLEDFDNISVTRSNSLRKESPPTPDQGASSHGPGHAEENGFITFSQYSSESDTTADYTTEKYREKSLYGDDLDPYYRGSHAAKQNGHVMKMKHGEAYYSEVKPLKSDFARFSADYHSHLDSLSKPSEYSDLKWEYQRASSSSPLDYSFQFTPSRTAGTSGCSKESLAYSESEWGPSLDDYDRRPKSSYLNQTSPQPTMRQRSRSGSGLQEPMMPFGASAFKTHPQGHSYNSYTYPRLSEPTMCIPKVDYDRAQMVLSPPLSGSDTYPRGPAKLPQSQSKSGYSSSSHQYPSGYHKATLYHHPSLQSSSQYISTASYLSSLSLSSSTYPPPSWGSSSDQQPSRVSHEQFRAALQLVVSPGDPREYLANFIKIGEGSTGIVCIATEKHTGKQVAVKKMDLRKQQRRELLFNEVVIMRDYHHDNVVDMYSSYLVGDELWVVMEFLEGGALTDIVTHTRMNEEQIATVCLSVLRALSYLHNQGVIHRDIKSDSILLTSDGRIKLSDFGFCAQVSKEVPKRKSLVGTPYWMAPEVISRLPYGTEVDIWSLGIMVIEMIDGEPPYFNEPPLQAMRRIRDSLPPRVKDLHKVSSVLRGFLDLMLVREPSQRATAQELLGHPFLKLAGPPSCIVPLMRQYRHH
Description: as §1

[8] = Drug concentrations in plasma and tumor of PC-3 tumor-bearing mice; type: in vivo; conditions: BomTac:NMRI-Foxn1^nu, mouse; for concentration at 24 h: oral
Source text: (§3) Plasma and homogenized tumor samples were extracted and analyzed by LC-MS. Detection was at unit resolution with a MRM 589.2/474.8. All calibration and QC samples were with ±20% (p.o.) and ±30% (i.v.) of the nominal value in the linear range of the calibration fitted with a linear regression and 1/x^2 weighting.

[9] = test system: AsPC-1 pancreas xenograft; assay: Subcutaneous xenograft efficacy; type: in vivo, mice
Description: (§4) For efficacy studies, 1 × 10^7 MIA PaCa-2 or 1 × 10^6 BxPC-3 cells (with Matrigel® 50:50) were injected subcutaneously into the right flank of female BomTac:NMRI-Foxn1^nu mice (age 6 weeks, 24-30 g; Taconic, Denmark). These two and the following tumor models were established from adherently grown cells which were either subcutaneously injected in PBS (LoVo, SW480, A-498, Calu-6, NCI-H2122, A549, SK-OV-3, TOV-21G, AsPC-1, PC-3) or were injected with Matrigel (HCC-461, A2780, PANC-1 and Hs 746 T). For the Caki-1 tumor model tumor fragments were passaged in mice. Mice were randomized according to tumor volume when tumors had reached diameters of 6–8 mm. […] Natrosol-treated animals served as vehicle controls (n = 10). Tumor diameters were measured three times weekly using a caliper and volumes were calculated according to the formula “tumor volume = length × diameter^2 × π/6”. Mice were inspected daily for abnormalities and body weight was determined three times weekly. Animals were euthanized at the end of the study or prematurely, based on criteria including weight loss exceeding 20%, tumor necrosis or tumor volumes exceeding 1500 mm^3.
(§5) Statistical evaluation was performed using SAS 8.2 (SAS Institute, Cary, NC, USA) and Proc StatXact (Cytel Software, Cambridge, MA, USA).
(§6) where Td and Cd denote the median of the tumor volume in the treatment group and the control group at day d, respectively. A one-sided increasing Wilcoxon test was applied to compare each experimental group with the vehicle control, the p values were adjusted for multiple comparisons according to Bonferroni–Holm. The level of significance was fixed at α = 5%. An adjusted p value of <0.05 was considered to show a significant difference between groups.

[10] = test system: BxPC-3 pancreas adenocarcinoma xenograft; assay: Subcutaneous xenograft efficacy; type: in vivo, mice; conditions: BxPC-3, 50 mg/kg
Description: as §4, §5, §6

[11] = test system: Hs 746T stomach xenograft; assay: Subcutaneous xenograft efficacy; type: in vivo, mice
Description: as §4, §5, §6

[12] = test system: NCI-H2122 lung carcinoma xenograft; assay: Subcutaneous xenograft efficacy; type: in vivo, mice
Description: as §4, §5, §6

A2780 ovary xenograft = assay: Subcutaneous xenograft efficacy; type: in vivo, mice
Description: as §4, §5, §6

HCC-461 lung xenograft = assay: Subcutaneous xenograft efficacy; type: in vivo, mice
Description: as §4, §5, §6

A-498 kidney xenograft = assay: Subcutaneous xenograft efficacy; type: in vivo, mice
Description: as §4, §5, §6

TOV-21G ovary xenograft = assay: Subcutaneous xenograft efficacy; type: in vivo, mice
Description: as §4, §5, §6

[13] = test system: LoVo colon/rectum xenograft; assay: Subcutaneous xenograft efficacy; type: in vivo, mice
Description: as §4, §5, §6

A549 lung xenograft = assay: Subcutaneous xenograft efficacy; type: in vivo, mice
Description: as §4, §5, §6

Caki-1 kidney xenograft = assay: Subcutaneous xenograft efficacy; type: in vivo, mice
Description: as §4, §5, §6

Calu-6 lung xenograft = assay: Subcutaneous xenograft efficacy; type: in vivo, mice
Description: as §4, §5, §6

[14] = test system: SW480 colon carcinoma xenograft; assay: Subcutaneous xenograft efficacy; type: in vivo, mice
Description: as §4, §5, §6

[15] = test system: SK-OV-3 ovarian carcinoma xenograft; assay: Subcutaneous xenograft efficacy; type: in vivo, mice
Description: as §4, §5, §6

[16] = test system: PANC-1 pancreas xenograft; assay: Subcutaneous xenograft efficacy; type: in vivo, mice
Description: as §4, §5, §6

[17] = test system: PC-3 prostate carcinoma xenograft; assay: Subcutaneous xenograft efficacy; type: in vivo, mice
Description: as §4, §5, §6

[18] = test system: MIA PaCa-2 pancreas adenocarcinoma xenograft; assay: Subcutaneous xenograft efficacy; type: in vivo, mice
Description: as §4, §5, §6

NCI-H2110 lung xenograft = assay: Subcutaneous xenograft efficacy; type: in vivo, mice
Description: as §5, §6

PC-3 cells [19] = assay: Clonogenic assay in soft agar (anchorage-independent growth); type: cell-based, human; conditions: Homo sapiens, PC-3, alamarBlue, read-out: Colony formation EC50 PC-3
Description: Clonogenic assays were performed using agarose-containing media. Cells were incubated at 37 °C and 5% CO2 for 14 days. alamarBlue® was used to detect colonies of viable cells (530 nm/590 nm). Data analysis was performed as described above.

[20] = Single-dose pharmacokinetics in nude mice; type: in vivo
Source text: as §3

[21] = female, BomTac:NMRI-Foxn1^nu, mouse, plasma, single oral dose 50 mg/kg

T1 sequence (P07332 whole entry): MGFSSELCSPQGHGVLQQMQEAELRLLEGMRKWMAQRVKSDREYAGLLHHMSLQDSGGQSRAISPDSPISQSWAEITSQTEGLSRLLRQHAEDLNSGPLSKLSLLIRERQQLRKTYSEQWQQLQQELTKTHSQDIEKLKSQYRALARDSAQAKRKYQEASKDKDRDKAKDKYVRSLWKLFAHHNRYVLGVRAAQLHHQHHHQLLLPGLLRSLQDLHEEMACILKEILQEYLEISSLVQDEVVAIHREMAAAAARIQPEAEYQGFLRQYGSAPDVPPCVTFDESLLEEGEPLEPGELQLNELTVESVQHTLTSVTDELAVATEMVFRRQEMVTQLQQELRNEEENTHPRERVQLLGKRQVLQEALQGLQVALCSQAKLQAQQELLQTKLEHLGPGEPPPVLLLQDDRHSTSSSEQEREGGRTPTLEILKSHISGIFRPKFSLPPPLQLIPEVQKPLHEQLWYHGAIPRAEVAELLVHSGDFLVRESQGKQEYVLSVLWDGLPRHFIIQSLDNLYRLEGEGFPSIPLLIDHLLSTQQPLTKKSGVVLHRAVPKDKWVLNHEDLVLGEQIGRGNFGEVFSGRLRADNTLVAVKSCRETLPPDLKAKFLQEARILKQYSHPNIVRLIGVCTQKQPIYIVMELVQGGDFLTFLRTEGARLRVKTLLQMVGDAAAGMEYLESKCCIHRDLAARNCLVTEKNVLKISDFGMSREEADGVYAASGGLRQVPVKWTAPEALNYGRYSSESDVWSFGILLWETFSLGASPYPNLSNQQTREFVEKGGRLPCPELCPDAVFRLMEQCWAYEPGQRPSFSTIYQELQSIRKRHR

## COc1cc(C(=O)NC2CCN(C)CC2)c(F)cc1Nc1ncc(C(F)(F)F)c(Oc2cccc3c2C(=O)N(C)C3)n1 [BI 853520]
FES
  IC50: 1040 nM
[1]
  tolerability (body weight gain, clinical signs): well tolerated
FER
  IC50: 903 nM
PTK2B/PYK2 [2]
  IC50: > 50000 nM
[3]
  maximal inhibition of proliferation: 40%
[3]; Homo sapiens
  EC50: 3 nM
[4]; Homo sapiens, few cell lines with interpretable sigmoid curves
  EC50: 3 to 30 nM
[4]; concentrations as high as 1 µmol/L
  effect on proliferation, vast majority of cell lines: not affected
[4]; few cell lines with interpretable sigmoid curves
  maximal inhibition of proliferation: 20–30%
PC-3; Homo sapiens
  EC50: 10 nM
PC-3
  maximal inhibition of proliferation: 20%
PTK2B/PYK2 [5]
  IC50: 2000 nM
PC-3 cells [6]
  EC50: > 3000 nM
[7]
  oral bioavailability in patients: orally bioavailable
  safety profile in patients: favorable safety profile
PAK7
  IC50: > 10000 nM
[8]; PC-3 tumor tissue, 50 mg/kg p.o. qdx4, 24 h after dose on day 4, PC-3 tumors, read-out: concentration in tumor tissue
  concentration at 24 h: 8.9 µM
[8]; PC-3 tumor tissue, po, 50 mg/kg p.o. qdx4, day 4, PC-3 tumors, read-out: time of peak level in tumor tissue
  Tmax: 6 h
[8]; plasma, 50 mg/kg p.o. qdx4, 24 h after dose on day 4, read-out: plasma level
  concentration at 24 h: 1.3 µM
[9]; AsPC-1, 50 mg/kg once daily per os
  Median TGI: 13 (n.s.) % and 13%
[9]; AsPC-1 xenograft, Supplement Table 3
  TGI: 13%
[10]
  Median TGI: 29%
[11]; Hs 746T xenograft, Supplement Table 3
  TGI: 72%
[11]; Hs 746T, 50 mg/kg once daily per os
  Median TGI: 72%
[12]; NCI-H2122, 50 mg/kg once daily per os
  Median TGI: 45 (n.s.) % and 45%
[12]; NCI-H2122 xenograft, Supplement Table 3
  TGI: 45%
A2780 ovary xenograft; A2780, 50 mg/kg once daily per os
  Median TGI: 89%
A2780 ovary xenograft; A2780 xenograft, Supplement Table 3
  TGI: 89%
HCC-461 lung xenograft; HCC-461, 50 mg/kg once daily per os
  Median TGI: 102%
HCC-461 lung xenograft; HCC-461 xenograft, Supplement Table 3
  TGI: 102%
A-498 kidney xenograft; A-498, 50 mg/kg once daily per os
  Median TGI: 93%
A-498 kidney xenograft; A-498 xenograft, Supplement Table 3
  TGI: 93%
TOV-21G ovary xenograft; TOV-21G xenograft, Supplement Table 3
  TGI: 93%
TOV-21G ovary xenograft; TOV-21G, 50 mg/kg once daily per os
  Median TGI: 93%
[13]; LoVo xenograft, Supplement Table 3
  TGI: 14%
[13]; LoVo, 50 mg/kg once daily per os, 50 mg/kg
  Median TGI: 14 (n.s.) % and 14%
A549 lung xenograft; A549, 50 mg/kg once daily per os
  Median TGI: 15 (n.s.) % and 15%
A549 lung xenograft; A549 xenograft, Supplement Table 3
  TGI: 15%
Caki-1 kidney xenograft; Caki-1, 50 mg/kg once daily per os
  Median TGI: 66%
Caki-1 kidney xenograft; Caki-1 xenograft, Supplement Table 3
  TGI: 66%
Calu-6 lung xenograft; Calu-6, 50 mg/kg once daily per os
  Median TGI: 102%
Calu-6 lung xenograft; Calu-6 xenograft, Supplement Table 3
  TGI: 102%
[14]; SW480, 50 mg/kg once daily per os
  Median TGI: 26 (n.s.) % and 26%
[14]; SW480 xenograft, Supplement Table 3
  TGI: 26%
[15]; SK-OV-3, 50 mg/kg once daily per os
  Median TGI: 57%
[15]; SK-OV-3 xenograft, Supplement Table 3
  TGI: 57%
[16]; PANC-1, 50 mg/kg once daily per os
  Median TGI: 83%
[16]; PANC-1 xenograft, Supplement Table 3
  TGI: 83%
[17]; PC-3, 50 mg/kg once daily per os
  Median TGI: 93%
[17]; PC-3 xenograft, Supplement Table 3
  TGI: 93%
[18]; MIA PaCa-2, 12.5 mg/kg, second independent study
  TGI: 89%
[18]; MIA PaCa-2, 25 mg/kg once daily
  partial regressions: 5 out of 10 tumors
[18]; MIA PaCa-2, 25 mg/kg once daily, first study
  TGI: 94%
[18]; MIA PaCa-2, 25 mg/kg, second independent study
  TGI: 96%
[18]; MIA PaCa-2, 50 mg/kg once daily
  partial regressions: 6 out of 10 tumors
[18]; MIA PaCa-2, 50 mg/kg once daily per os
  Median TGI: 104%
[18]; MIA PaCa-2 xenograft, Supplement Table 3
  TGI: 104%
NCI-H2110 lung xenograft
  Sensitivity: moderately sensitive (“moderately sensitive” for statistically significant TGI values of 57–83%)
PC-3 cells [19]
  EC50: 3 nM
[20]; BomTac:NMRI-Foxn1^nu, mouse, plasma, single intravenous dose 5 mg/kg, female nude mice
  clearance: 36 mL/min/kg
[20]; BomTac:NMRI-Foxn1^nu, mouse, plasma, single intravenous dose 5 mg/kg, female nude mice, read-out: mean residence time
  MRT: 3 h
[20]; BomTac:NMRI-Foxn1^nu, mouse, plasma, single intravenous dose 5 mg/kg, female nude mice, read-out: volume of distribution
  Vd: 6.6 L/kg
[20]; [21]
  bioavailability: 90%
  half-life: 5 h
[20]; female, BomTac:NMRI-Foxn1^nu, mouse, single oral dose 50 mg/kg, plasma, read-out: time of maximal concentration
  Tmax: 2 h
[20]; single oral dose 50 mg/kg
  AUC: 46 µM·h
[20]; single oral dose 50 mg/kg, plasma
  maximal concentration: 4.4 µmol/L
